Data from US12172975B2, “1H-indazole carboxamides as receptor-interacting protein kinase 1 inhibitors (RIPK1)” (BRISTOL-MYERS SQUIBB COMPANY, priority 2018, dated 2024).
Where a name gives a salt, the structure may show the parent alone. Read-outs that look alike come from different tables or passages of the source.

Columns and labels:
[1] = test system: MLKL phosphorylation in HT29-L23 human colorectal adenocarcinoma cells; test: MLKL Phosphorylation High-Content Assay; assay type: cell-based; settings: necroptosis induced with TNFα, SMAC mimetic and Z-VAD, 6 h, read-out: pMLKL (IC50)
How it was run: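 HT29-L23 cells were induced to necroptosis with TNFα (35 ng/mL), SMAC mimetic (700 nM) and Z-VAD (140 nM) for 6 h at 37 °C. Phospho-MLKL (S358) immunofluorescence was imaged and quantified per cell; maximal inhibition set by Nec-1s (6.25 μM), and IC50/Ymax from 4-parameter logistic fit.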

[2] = target: His-GST-TVMV-hRIPK1 (1-324) (Homo sapiens (Human), UniProt Q13546); test: RIPK1 HTRF Binding Assay; settings: read-out: RIPK1 HTRF (IC50); FRET probe displacement, 1 h at rt
Sequence of His-GST-TVMV-hRIPK1 (1-324) (Q13546 1-324): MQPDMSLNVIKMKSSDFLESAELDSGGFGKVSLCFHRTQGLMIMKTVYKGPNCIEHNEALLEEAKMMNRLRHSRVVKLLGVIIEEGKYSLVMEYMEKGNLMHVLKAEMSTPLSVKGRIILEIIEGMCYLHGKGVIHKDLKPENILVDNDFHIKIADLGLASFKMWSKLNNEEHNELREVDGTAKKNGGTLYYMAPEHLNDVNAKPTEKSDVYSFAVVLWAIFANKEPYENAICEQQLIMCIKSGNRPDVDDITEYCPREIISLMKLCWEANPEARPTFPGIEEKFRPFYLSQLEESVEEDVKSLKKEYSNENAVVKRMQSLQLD

SMILES	IC50 [1] [nM]	IC50 [2] [nM]	IC50 ([1]; Homo sapiens) [nM]
CNC(=O)c1n[nH]c2cc(-c3cnc(OC)c(C(=O)NCC4CCCC4(C)C)c3)ccc12 (centres unmarked) [Example 116, 6-(5-{[(2,2-dimethylcyclo-pentyl)methyl]carbamoyl}-6-methoxypyridin-3-yl)-N-methyl-1H-indazole-3-carbox-amide]	54	9.6	
CNC(=O)c1n[nH]c2cc(-c3cnc(OC)c(C(=O)NCc4ccccc4OC4CCCCC4)c3)ccc12 [Example 113, 6-[5-({[2-(cyclohexyloxy)-phenyl]methyl}carbamoyl)-6-methoxypyridin-3-yl]-N-methyl-1H-indazole-3-carbox-amide]	9.7	27	
CNC(=O)c1n[nH]c2cc(-c3cc(C(=O)NC(C)c4ccccc4OC(F)(F)F)c(OC)nc3C)ccc12 (centres unmarked) [Example 158, 6-[6-methoxy-2-methyl-5-({1-[2-(trifluoromethoxy)-phenyl]ethyl}carbamoyl)-pyridin-3-yl]-N-methyl-1H-indazole-3-carboxamide]		35	21
CNC(=O)c1n[nH]c2cc(-c3cnc(OC)c(C(=O)N4CCC[C@@H](Cc5ccc(F)cc5)C4)c3)ccc12 [Example 134, 6-{5-[(3S)-3-[(4-fluorophenyl)-methyl]piperidine-1-carbonyl]-6-methoxy-pyridin-3-yl}-N-methyl-1H-indazole-3-carbox-amide, TFA]	7.3	17	
COc1ncc(-c2ccc3c(C(=O)NC4CC4)n[nH]c3c2)cc1C(=O)N[C@H](C)c1cccc(OC(F)(F)F)c1 [Example 205, N-cyclopropyl-6-[6-(deutero)-methoxy-5-{[(1R)-1-[3-(trifluoro-methoxy)phenyl](2,2,2-deutero)-ethyl]carbamoyl}pyridin-3-yl]-1H-indazole-3-carboxamide, TFA]	60	20	
CCN(CC)C1CCC(NC(=O)c2n[nH]c3cc(-c4cnc(OC)c(C(=O)NCc5ccccc5OC(F)(F)F)c4)ccc23)CC1 (centres unmarked) [Example 184, N-[4-(diethylamino)cyclohexyl]-6-[6-methoxy-5-({[2-(trifluoro-methoxy)phenyl]methyl}carbam-oyl)pyridin-3-yl]-1H-indazole-3-carboxamide, TFA]		7	88
[2H]C([2H])([2H])Oc1ncc(-c2ccc3c(C(=O)NC4CC4)n[nH]c3c2)cc1C(=O)N[C@@H]1CN(C(=O)C2CC(F)(F)C2)C[C@@H]1F [Example 190, N-cyclopropyl-6-(5-{[(3R,4S)-1-(3,3-difluorocyclobutanecarbonyl)-4-fluoropyrrolidin-3-yl]carbamoyl}-6-(deutero)methoxypyridin-3-yl)-1H-indazole-3-carboxamide]		100	290
CNC(=O)c1n[nH]c2cc(-c3cnc(OC)c(C(=O)NCC(O)COc4ccccc4)c3)ccc12 (centres unmarked) [Example 56, 6-{5-[(2-hydroxy-3-phenoxy-propyl)carbamoyl]-6-meth-oxypyridin-3-yl}-N-methyl-1H-indazole-3-carboxamide]		8.4	26
[2H]C([2H])([2H])Oc1ncc(-c2ccc3c(C(=O)NCC4CC4)n[nH]c3c2)cc1C(=O)NC(C)c1cccc(OC(F)(F)F)c1 (centres unmarked) [Example 166, N-(cyclopropylmethyl)-6-[6-(deutero)methoxy-5-({1-[3-(tri-fluoromethoxy)phenyl]ethyl}-carbamoyl)pyridin-3-yl]-1H-indazole-3-carboxamide]		83	34
[2H]C([2H])([2H])Oc1ncc(-c2ccc3c(C(=O)NC4CC4)n[nH]c3c2)cc1C(=O)N[C@H](C)c1ccccc1OC(F)(F)F [Example 13, (R)—N-cyclopropyl-6-(6-methoxyd3-5-((1-(2-(trifluoromethoxy)phenyl)ethyl)carbamoyl)pyridin-3-yl)-1H-indazole-3-carboxamide]		5.5	5.1
